{"source": "patent US20140080787A1", "about": "“Method for the Treatment of Neuropathies Associated with Charcot-Marie-Tooth 1A (CMT1A) Disease” (National Institutes of Health, US Dept of Health and Human …, priority 2012, published 2014)", "key": {"[1]": {"system": "PMP22", "test": "PMP22 expression in sciatic nerve of CMT1A rats, quantitative rtPCR", "format": "in vivo, rat", "conditions": "vehicle = 1.00, ± SEM", "excerpt": "Abundance of gene expression could be determined relative to an untreated sample for each gene using the comparative Ct method as described in the procedure published by K. J. Livak and T. D. Schmittgen (Analysis of relative gene expression data using real-time quantitative PCR and the 2^ΔΔCT method. Methods, 2001, 25, 402-408).\nChanges in the expression of peripheral and central nervous system gene makers (including myelin markers such as PMP22, P0, and Myelin Basic Protein) were followed after proteasome inhibitor administration, and a reduction of PMP22 expression was observed. Changes in PMP22 gene expression were correlated with measures of neurological function that are used to measure the CMT1A neuropathy. These measures of neurological function included measures of motor coordination, nerve conduction velocity, and histology of femoral motor and sensory nerves. Relevant measures of CMT1A function have been outlined by J. C. Noreel and co-authors (Behavioural profiling of a murine Charcot-Marie-Tooth disease type 1A model. Eur. J. Neurosci. 2001, 13, 1625-1634).\nBortezomib was administered subcutaneously (s.c.) at a dose equivalent to 0.1 mg substance/kg of body weight, using an injection concentration of 2.5 mg of substance/ml. RNA was purified from sciatic nerve at 7 d post-injection. […] Errors indicate the standard error of the mean (SEM).\nOprozomib (ONX-0912) was administered at the indicated doses by oral gavage and RNA was purified from sciatic nerve at 7 d. […] Errors indicate SEM. Vehicle was 10% EtOH, 10% Tween80, 80% 10 mM citrate buffer pH=3.5 (see; Zhou, H-J. et al., Design and Synthesis of an Orally Bioavailable and Selective Peptide Epoxyketone Proteasome Inhibitor (PR-047). J. Med. Chem., 2009, 52, 3028-3038)."}, "[2]": {"system": "human PMP22 gene", "test": "Orthogonal reporter assays (firefly luciferase or β-lactamase coupled to the intronic regulatory element of the human PMP22 gene)", "format": "cell-based", "conditions": "targeted screening, firefly luciferase and β-lactamase reporters", "excerpt": "A cross-validating pair of orthogonal reporter assays, which employ either firefly luciferase or β-lactamase coupled to the intronic regulatory element of the human PMP22 gene, were used to measure CMT1A PMP22 overexpression as a means of identifying transcriptional inhibitors with therapeutic value toward CMT1A. […] A description of assays and methods used to identify compounds has been provided by S-W Jang and co-authors (Identification of drug modulators targeting gene-dosage disease. ACS Chem Biol., 2012, 7, 1205-1213)."}, "[3]": {"system": "PMP22", "test": "PMP22 expression in S16 Schwann cells, quantitative rtPCR", "format": "cell-based", "conditions": "for RQ (Relative Quantity) PMP22-P1 / RQ (Relative Quantity) PMP22-P2: normalized to beta-actin, untreated = 1.000; for PMP22 P1 relative level of expression / PMP22 P2 relative level of expression: 24 h, S16 Schwann cells, relative to untreated control, normalized to 18S rRNA, ± S.D.", "experimental": "To determine if proteasome inhibitors affect endogenous PMP22 expression, quantitative rtPCR was utilized to measure the abundance of PMP22 mRNA transcript in the S16 Schwann cells, which were plated in 6 well plates and treated with each compound at the indicated concentrations. After 24 h., the cells were harvested to purify RNA, 1 μg of which was converted into cDNA. Quantitative rtPCR was performed in either SYBR green-based reactions or Taqman-based customized 384-well micro fluidic arrays using a ViiA7 system or StepOne Plus (Applied Biosystems). Abundance of gene expression was first normalized to beta-actin (ActB, NM_031144.2) or 18 S rRNA, which served as an endogenous loading control across samples, and then determined relative to the untreated sample for each gene using the comparative Ct method described by K. J. Livak and T. D. Schmittgen (Analysis of relative gene expression data using real-time quantitative PCR and the 2^ΔΔCT method. Methods, 2001, 25, 402-408).\nS16 Schwann cells were treated with indicated proteasome inhibitors for 24 h. RNA was prepared and analyzed by quantitative rtPCR using promoter specific primers for PMP22 (labeled P1 and P2). Relative levels of expression are shown relative to untreated control cells. Values are normalized to 18S rRNA. Errors reflect the standard deviation (S.D.) of technical duplicates.\nRQ=Relative Quantity, normalized to beta-actin"}, "[4]": {"system": "PMP22", "test": "Effect on PMP22 expression in mice after a single s.c. injection", "format": "in vivo", "conditions": "10 mg/kg, n = 4, vehicle printed 0.739 ± 0.07", "excerpt": "MLN9708. Anatomical areas of subcutaneous administration could include the right or left thigh, or abdomen. The same anatomical area can be used for repeated administration. However, injections are typically to be rotated between sites (see; Fledrich, R. M. et al., Murine therapeutic models for Charcot-Marie-Tooth (CMT) disease. British Medical Bulletin, 2012, 102, 89-113)."}, "[5]": {"conditions": "0.1 mg/kg s.c., sciatic nerve, 7 d post-injection, n = 9"}, "[6]": {"conditions": "10 mg/kg oral gavage, sciatic nerve at 7 d, n = 7"}, "[7]": {"conditions": "30 mg/kg oral gavage, sciatic nerve at 7 d, n = 7"}}, "data": [{"smiles": "CC(C)C[C@H](NC(=O)[C@H](Cc1ccccc1)NC(=O)c1cnccn1)B(O)O", "note": "[Bortezomib, [(1R)-3-methyl-1-({(2S)-3-phenyl-2-[(pyrazin-2-ylcarbonyl)amino]propanoyl}amino)butyl]boronic acid]", "values": [{"measurement": "PMP22 P1 relative level", "setting": "[1]; [5]", "result": "0.675 ± 0.17"}, {"measurement": "PMP22 P2 relative level", "setting": "[1]; [5]", "result": "0.4 ± 0.07"}, {"measurement": "Total PMP22 relative level", "setting": "[1]; [5]", "result": "0.3 ± 0.05"}, {"measurement": "Effect on CMT1A PMP22 overexpression in reporter assays", "setting": "[2]", "result": "selectively reducing CMT1A expression"}, {"measurement": "RQ (Relative Quantity) PMP22-P1", "setting": "[3]; 10 nM", "result": 0.517}, {"measurement": "RQ (Relative Quantity) PMP22-P2", "setting": "[3]; 10 nM", "result": 0.809}, {"measurement": "RQ (Relative Quantity) PMP22-P1", "setting": "[3]; 100 nM", "result": 0.032}, {"measurement": "RQ (Relative Quantity) PMP22-P2", "setting": "[3]; 100 nM", "result": 0.153}, {"measurement": "RQ (Relative Quantity) PMP22-P1", "setting": "[3]; 1 μM", "result": 0.041}, {"measurement": "RQ (Relative Quantity) PMP22-P2", "setting": "[3]; 1 μM", "result": 0.232}, {"measurement": "RQ (Relative Quantity) PMP22-P1", "setting": "[3]; 10 μM", "result": 0.077}, {"measurement": "RQ (Relative Quantity) PMP22-P2", "setting": "[3]; 10 μM", "result": 0.285}]}, {"smiles": "CC(C)C[C@H](NC(=O)[C@H](CCc1ccccc1)NC(=O)CN1CCOCC1)C(=O)N[C@@H](Cc1ccccc1)C(=O)N[C@@H](CC(C)C)C(=O)[C@@]1(C)CO1", "note": "[Carfilzomib, (S)-4-nethyl-N-((S)-1-(((S)-4-methyl-1-((R)-2-methyloxiran-2-yl)-1-oxopentan-2-yl)amino)-1-oxo-3-phenylpropan-2-yl)-2-((S)-2-(2-morpholinoacetamido)-4-phenylbutanamido)pentanamide]", "values": [{"measurement": "PMP22 P1 relative level of expression", "setting": "[3]; 1 nM", "result": "0.003 ± 0.0004"}, {"measurement": "PMP22 P2 relative level of expression", "setting": "[3]; 1 nM", "result": "0.012 ± 0.004"}, {"measurement": "PMP22 P1 relative level of expression", "setting": "[3]; 2.5 nM", "result": "0.006 ± 0.0005"}, {"measurement": "PMP22 P2 relative level of expression", "setting": "[3]; 2.5 nM", "result": "0.027 ± 0.0037"}, {"measurement": "PMP22 P1 relative level of expression", "setting": "[3]; 5 nM", "result": "0.006 ± 0.0019"}, {"measurement": "PMP22 P2 relative level of expression", "setting": "[3]; 5 nM", "result": "0.037 ± 0.00026"}, {"measurement": "PMP22 P1 relative level of expression", "setting": "[3]; 10 nM", "result": "0.014 ± 0.0007"}, {"measurement": "PMP22 P2 relative level of expression", "setting": "[3]; 10 nM", "result": "0.046 ± 0.0022"}, {"measurement": "PMP22 P1 relative level of expression", "setting": "[3]; 100 nM", "result": "0.009 ± 0.0055"}, {"measurement": "PMP22 P2 relative level of expression", "setting": "[3]; 100 nM", "result": "0.027 ± 0.017"}, {"measurement": "PMP22 P1 relative level of expression", "setting": "[3]; 1 μM", "result": "0.008 ± 0.0024"}, {"measurement": "PMP22 P2 relative level of expression", "setting": "[3]; 1 μM", "result": "0.036 ± 0.0049"}]}, {"smiles": "CC(C)C[C@H](NC(=O)CNC(=O)c1cc(Cl)ccc1Cl)B(O)O", "note": "[MLN2238, (R)-1-(2-(2,5-dichlorobenzamido)acetamido)-3-methylbutylboronic acid]", "values": [{"measurement": "PMP22 P1 relative level of expression", "setting": "[3]; 25 nM", "result": "1.177 ± 0.42"}, {"measurement": "PMP22 P2 relative level of expression", "setting": "[3]; 25 nM", "result": "0.837 ± 0.041"}, {"measurement": "PMP22 P1 relative level of expression", "setting": "[3]; 50 nM", "result": "0.826 ± 0.225"}, {"measurement": "PMP22 P2 relative level of expression", "setting": "[3]; 50 nM", "result": "0.865 ± 0.141"}, {"measurement": "PMP22 P1 relative level of expression", "setting": "[3]; 100 nM", "result": "0.005 ± 0.0005"}, {"measurement": "PMP22 P2 relative level of expression", "setting": "[3]; 100 nM", "result": "0.020 ± 0.005"}, {"measurement": "PMP22 P1 relative level of expression", "setting": "[3]; 1 μM", "result": "0.003 ± 0.0007"}, {"measurement": "PMP22 P2 relative level of expression", "setting": "[3]; 1 μM", "result": "0.022 ± 0.0026"}, {"measurement": "PMP22 P1 relative level of expression", "setting": "[3]; 10 μM", "result": "0.007 ± 0.00003"}, {"measurement": "PMP22 P2 relative level of expression", "setting": "[3]; 10 μM", "result": "0.018 ± 0.0123"}]}, {"smiles": "CC(C)C[C@H](NC(=O)CNC(=O)c1cc(Cl)ccc1Cl)B1OC(=O)CC(CC(=O)O)(C(=O)O)O1", "note": "(stereo partly drawn) [MLN9708, 4-(carboxymethyl)-2-((R)-1-(2-(2,5-dichlorobenzamido)acetamido)-3-methylbutyl)-6-oxo-1,3,2-dioxaborinane-4-carboxylic acid]", "values": [{"measurement": "Total PMP22 relative level", "setting": "[4]", "result": "1.00 ± 0.09"}]}, {"smiles": "COC[C@H](NC(=O)c1cnc(C)s1)C(=O)N[C@@H](COC)C(=O)N[C@@H](Cc1ccccc1)C(=O)[C@@]1(C)CO1", "note": "[Oprozomib, O-methyl-N-[(2-methyl-5-thiazolyl)carbonyl]-L-seryl-O-methyl-N-[(1S)-2-[(2R)-2-methyl-2-oxiranyl]-2-oxo-1-(phenylmethyl)ethyl]-L-serinamide]", "values": [{"measurement": "PMP22 P1 relative level", "setting": "[1]; [6]", "result": "0.46 ± 0.15"}, {"measurement": "PMP22 P2 relative level", "setting": "[1]; [6]", "result": "3.1 ± 0.9"}, {"measurement": "Total PMP22 relative level", "setting": "[1]; [6]", "result": "0.62 ± 0.17"}, {"measurement": "PMP22 P1 relative level", "setting": "[1]; [7]", "result": "0.46 ± 0.1"}, {"measurement": "PMP22 P2 relative level", "setting": "[1]; [7]", "result": "1.87 ± 0.77"}, {"measurement": "Total PMP22 relative level", "setting": "[1]; [7]", "result": "0.61 ± 0.07"}]}]}
